Results reported in patent US9125898B2, “Acetam derivatives for pain relief” (NEUROTUNE AG, priority 2008, dated 2015).
“Also recorded” adds a separate entry of the source.

Columns and labels:
[1] = test system: ddC induced mechanical allodynia in rats; assay: ddC induced mechanical allodynia in rats, von Frey test; type: in vivo, rat; settings: for Reversal of ddC-induced neuropathy (mechanical threshold, von Frey): FIG. 4, 15 min after drug administration
Protocol: Painful peripheral NP may be induced in rats by i.v. administration of 2′,3′-dideoxycytidine (ddC) mimicking what is seen in AIDS patients undergoing antiviral therapy. The ddC test represents a useful and predictive model to study molecules with analgesic potential in human neuropathic states.
Adult male SD rats (Harlan, Italy, 150-200 g weight) were used. Animals were treated with 25 mg/kg i.v. bolus of 2′,3′-dideoxycytidine, an inhibitor of nucleoside reverse transcriptase used for AIDS therapy that in rodents induces a peripheral neuropathy resulting in allodynic responses to mechanical stimuli. Symptoms severity peaks between 5 to 10 days after administration (Joseph, E. K. et al. —Pain 107 (2004) 147-158). Ten days after administration of ddC, as an intravenous (i.v.) bolus, test substances were administered every day, once a day or b.i.d for 4 weeks. Dosing was withheld in those days in which allodynic tests were performed, and lasted for 24 h and 48 h.
NT-11624 was dissolved in distilled water and was orally by gavage administered as follows • Group 1: 100 mg/kg b.i.d. for 14 days, followed by 50 mg/kg b.i.d. for 7 days, then 50 mg/kg u.i.d. for 7 days. • Group 2: 50 mg/kg b.i.d. for 28 days.
Pregabalin (3B Pharmachem (Wuhan) International Co.) was dissolved in 1% CMC (carboxymethylcellulose) and orally administered at the dose of 15 mg/kg b.i.d. for 28 days.
Thresholds for mechanical allodynia were measured using an electronic Von Frey apparatus. […] After 4 week drug administration, additional tests were performed beyond the 60 min point, at 4, 8, 24, 48 and 56 h. Results represent the mean (±S.E.M.) of mechanical thresholds expressed in grams.
Drugs: The following substance was used: NT-11624 (batch No. 0000104580 supplied by Brane Discovery Srl, Gerenzano Italy). NT-11624 was dissolved in distilled water and given p.o. every day, except in those days in which allodynic tests were performed and lasted for 24 h, 48 h and 56 h (i.e. days 1, 3, 7, 10, 14, 21, 28).
The following groups of treatment were utilized: • NT-11624 (Group 1): rats received 100 mg/kg b.i.d. of NT-11624 for 14 days, then 50 mg/kg b.i.d. for 7 days, then 50 mg/kg u.i.d. for 7 days. • NT-11624 (Group 2): rats received 50 mg/kg b.i.d. for 28 days • Pregabalin: rats received 15 mg/kg b.i.d. for 28 days
Administration volume was 10 ml/kg body weight. Pregabalin [3B Pharmachem (Wuhan), International Co] was dissolved in CMC 1% (carboxymethylcellulose, Sigma-Aldrich, Italy), and orally given as described before. Control rats received vehicle only.
ddC intravenous injection: ddC was dissolved in saline to a concentration of 25 mg/kg (1 ml) and was administered i.v. into the rat tail vein. Control rats were treated with an equal volume of saline i.v.
The administration of ddC produces dose-dependent mechanical hypersensitivity and allodynia peaking in severity between 5-10 days after the administration. The test is usually performed at day 10.
Von Frey test: Each animal was placed in a chamber with a mesh metal floor covered by a plastic dome that enabled the animal to walk freely, but not to jump. The mechanical stimulus was then delivered in the mid-plantar skin of left hind paw using an electronic Von Frey apparatus (37400 Dynamic Plantar Aesthesiometer; Ugo Basile, Comerio, Varese, Italy). The cut-off was fixed at 50 g, while the increasing force rate (ramp duration) was settled at 20 sec. […] At day 28, additional tests were performed at 4, 8, 24, 48 and 56 h after drug administration. Results represent the mean (±S.E.M.) of mechanical thresholds expressed as grams.

[2] = test system: MIA induced hyperalgesia in the rat; assay: MIA induced hyperalgesia in the rat (paw-pressure test); type: in vivo; settings: for Mechanical threshold, before treatment, first day basal: baseline
Excerpt: Peripheral neuropathic induced in rats by administration into the left knee joint of MIA mimics chronic pain condition of osteoarthritis found in a large part of population over 60 years. The MIA test represents an useful and predictive model to study the anti-hyperalgesic potential of a drug in human osteoarthritic condition.
Drugs: The following substances were used: NT-11624 (batch n 66-MM3/16 supplied by Brane Discovery Sri, Gerenzano Italy) and tramadol (Tocris, UK). […] Control rats received saline only.
Sodium monoiodoacetate injection: A single intra-articular injection of sodium iodoacetate (MIA) was introduced into the right knee joint. […] Briefly, rats were deeply anaesthetized by ethylic ether. Following abolition of the hindpaw pinch withdrawal reflex, a 27-gauge needle was introduced into the joint cavity between the tibial plateau and femoral condyles. Once in place, 2 mg of MIA were solubilized in a volume of 25 ul and injected into the joint and the animal was allowed to recover for 14 days prior to pain assessment. It has consistently been shown that this dose of MIA causes osteoarthritic-like focal lesions in articular cartilage and subchondral bone thickening 14 days after administration Guingamp C. et al. Arthritis Rheum 40, 1670-9 (1997). Therefore this model can easily and quickly reproduce osteoarthritic-like lesions and functional impairment in rats, similar to that observed in human disease.
The administration of MIA induces in rats a hyperalgesic response to mechanical stimuli that reaches its statistical significance 5 days after administration and persists for 4 weeks (Fernihough et al. Pain 112:83-93 (2004)).
Control rats were treated with an equal volume of saline. […]
Starting from day 17 after MIA injection, paw pressure tests were performed.
Mechanical hyperalgesia: Paw mechanical sensitivity was determined using a Randall & Selitto apparatus exerting a force that increases at constant rate (32 g/s). The stimulus at which rats withdrawn the paw was evaluated before treatment (First day basal) and at the end of the treatment as following: before last treatment (pre-dose), and after last treatment (15, 30, 45, 60 min, 24, 48 and 72 h).
Results represent the mean of mechanical thresholds expressed as grams. To avoid any possible damage to the animal paw the maximum applied force was fixed at 240 g.

[3] = Group 1 down-titration schedule, p.o.
[4] = Group 2: 50 mg/kg b.i.d. p.o. for 28 days, 50 mg/kg
[5] = MIA rats, 14 days b.i.d. p.o. (NT-11624 150 mg/kg, tramadol 40 mg/kg)
[6] = MIA rats, 14 days b.i.d. p.o., NT-11624 150 mg/kg
[7] = MIA rats, single p.o. administration on saline b.i.d. (NT-11624 150 mg/kg, tramadol 40 mg/kg)
[8] = 15 mg/kg b.i.d. p.o. for 28 days

O=C1CN2C(=O)CCC2N1 (centres unmarked) [NT-11624, 2,5-dioxohexahydro-1H-pyrrolo[1,2-a]imidazole]
Reversal of ddC-induced neuropathy (mechanical threshold, von Frey) [1]: fully reverts | Onset of anti-allodynic effect ([1]; Group 1: 100 mg/kg b.i.d. 14 days, then 50 mg/kg b.i.d. 7 days, then 50 mg/kg u.i.d. 7 days, p.o.): starting from the third day; also recorded: as of day 3 | Anti-allodynic effect 56 h from the last administration [1, 3]: still significant protection; also recorded: robust effect | Anti-allodynic effect at day 14 [1, 3]: complete protection | Anti-allodynic effect up to 48 h from the last administration (day 28) [1, 3]: full reversal of allodynia | Effect up to 24 h after the last administration ([1]; Group 2: 50 mg/kg b.i.d. p.o. for 28 days): clearly evident | Effect 48 h after the last administration [1, 4]: still significant; also recorded: still evident | Onset of anti-pain response [1, 4]: starting from day 10; also recorded: as of day 10 | Anti-hyperalgesic effect 15 min until 48 h after last dosing ([2]; 150 mg/kg b.i.d. oral, 2 weeks): lasted throughout the experiment | Paw pressure hyperalgesic response at the pre last administration test ([2]; 75 and 150 mg/kg b.i.d. oral, 2 weeks, 13 h after the evening administration of the previous day): significant reduction of the hyperalgesia | Mechanical threshold, after last treatment 15 min [2, 5]: 72.6 ± 4.1 g | Mechanical threshold, after last treatment 30 min [2, 5]: 75.0 ± 2.2 g | Mechanical threshold, after last treatment 45 min [2, 5]: 70.5 ± 2.7 g | Mechanical threshold, before last treatment, pre-dose [2, 5]: 65.1 ± 2.5 g | Mechanical threshold, after last treatment 60 min [2, 6]: 60.6 ± 4.2 g | Mechanical threshold, after last treatment 24 h [2, 6]: 55.3 ± 4.8 g | Mechanical threshold, after last treatment 48 h [2, 6]: 43.9 ± 4.0 g | Mechanical threshold, after last treatment 72 h ([2]; MIA rats, 14 days b.i.d. p.o., NT-11624 150 mg/kg, mean of 4 rats): 34.8 ± 3.7 g | Mechanical threshold, before treatment, first day basal ([2]; MIA rats, groups later treated 14 days b.i.d. p.o. (NT-11624 150 mg/kg, tramadol 40 mg/kg)): 63.5 ± 3.2 g | Mechanical threshold, before treatment, first day basal ([2]; MIA rats, single administration groups (saline 14 days b.i.d. first)): 60.4 ± 2.7 g | Mechanical threshold, before last treatment, pre-dose ([2]; MIA rats, single administration on saline b.i.d., before the single p.o. dose (NT-11624 150 mg/kg, tramadol 40 mg/kg)): 23.9 ± 3.5 g | Mechanical threshold, after last treatment 15 min [2, 7]: 33.8 ± 3.1 g | Mechanical threshold, after last treatment 30 min [2, 7]: 39.3 ± 2.8 g | Mechanical threshold, after last treatment 45 min [2, 7]: 26.2 ± 3.1 g | Antihyperalgesic activity at 48 h after the last treatment ([2]; NT-11624 150 mg/kg p.o., 14 days b.i.d.): statistically significant activity | Duration of beneficial effect after last dosing ([2]; after a 2 week oral b.i.d. treatment): at least 48 h | Effect of a single oral dose on mechanical threshold (in words) ([2]; single oral dose after saline b.i.d. for 14 days (NT-11624 150 mg/kg, tramadol 40 mg/kg)): significant increase of mechanical threshold only at 30 min | Antihyperalgesic activity after the last treatment (in words) ([2]; treatment for 14 days b.i.d. p.o. (NT-11624 150 mg/kg, tramadol 40 mg/kg)): completely protects from MIA-induced hyperalgesia up to 24 h

CC(C)C[C@H](CN)CC(=O)O [Pregabalin, reference compound]
Onset of effect on allodynic threshold ([1]; 15 mg p.o. b.i.d.): modest but significant effect already from day 1 | Day of peak effect [1, 8]: 14 days | Effect of the last administration on day 28 [1, 8]: moderate beneficial effect that disappeared after 8 h

CC[C@@H](C(N)=O)N1CCCC1=O [levetiracetam, reference compound]
Reversal of ddC-induced neuropathy (mechanical threshold, von Frey) [1]: not
